Earlier results on six molecules are cited in US11957779B2, “Agent for dyeing keratinous material, containing aminosilicone, pigment and polysaccharide” (Henkel AG & Co. KGaA, priority 2019, dated 2024).

The conditions of data set [1]: 25° C.
For data set [2] the following is noted: 5% solution in water.

In the case of `O=C([O-])C1=NN(c2ccc(S(=O)(=O)[O-])cc2)C(=O)C1N=Nc1ccc(S(=O)(=O)[O-])cc1.[Na+].[Na+].[Na+]` (stereo not drawn) [Acid Yellow 23, trisodium salt of 4,5-dihydro-5-oxo-1-(4-sulfophenyl)-4-((4-sulfophenyl)azo)-1H-pyrazole-3-carboxylic acid], the “solubility in water (in words)” value in data set [1] is on record as “highly soluble”.

As for `O=S(=O)([O-])c1ccc(N=Nc2c(O)ccc3ccccc23)cc1.[Na+]` [Acid Orange 7, sodium salt of 4-[(2-hydroxy-1-naphthyl)azo]benzene sulphonate], in data set [1], the solubility in water entry is “more than 7 g/L”.

Turning to `Nc1cc(S(=O)(=O)[O-])cc2cc(S(=O)(=O)[O-])c(N=Nc3ccccc3)c(O)c12.[Na+].[Na+]` [Acid Red 33, diantrium salt of 5-amino-4-hydroxy-3-(phenylazo)-naphthalene-2,7-disulphonate], the solubility in water in data set [1] is 2500 µg/mL.

For the molecule `O=P([O-])(O)O.[K+]` [Potassium dihydrogen phosphate], the pH value result in data set [2] is on record as “about 4.4”.

In the case of `CCN(Cc1cccc(S(=O)(=O)[O-])c1)c1ccc(C(=C2C=CC(=[N+](CC)Cc3cccc(S(=O)(=O)[O-])c3)C=C2)c2ccccc2S(=O)(=O)[O-])cc1.[Na+].[Na+]` [Acid Blue 9], in data set [1], the solubility in water result is recorded as “more than 20 wt. %”.

With `O=C([O-])c1c(Cl)c(Cl)c(Cl)c(Cl)c1-c1c2c(Br)cc(=O)c(Br)c-2oc2c(Br)c(O)cc(Br)c12.O=C([O-])c1c(Cl)c(Cl)c(Cl)c(Cl)c1-c1c2c(Br)cc(=O)c(Br)c-2oc2c(Br)c(O)cc(Br)c12.[Na+].[Na+]` [Acid Red 92, disodium salt of 3,4,5,6-tetrachloro-2-(1,4,5,8-tetrabromo-6-hydroxy-3-oxoxanthen-9-yl)benzoic acid], the solubility in water result in data set [1] is on record as “greater than 10 g/L”.
